How the values were obtained:
[1] = system: Gab1-Shp2 association in MDA-MB-231 cells; assay: Gab1-Shp2 co-immunoprecipitation, MDA-MB-231; type: cell-based, human; settings: Fumos alone
Procedure: Cells were washed with cold PBS twice and lysed in cell lysis buffer for 10 min on ice. Then the lytic cells were centrifugated with 13,000 g for 10 min at 4 °C. The supernatant was transferred to a fresh conical centrifuge tube on ice and added 1 μg of the appropriate control IgG, together with 20 μl of resuspended volume of Protein A/G PLUS-Agarose (Santa Cruz Biotechnology, CA), then incubated at 4 °C for 30 min. The pellet beads were centrifugated at 1,000 g for 5 min at 4 °C. The supernatant with approximately 100–500 μg total cellular protein was incubated with 2 μg primary antibody against Shp2 or Gab1 for 7 h at 4 °C. Then lysates containing protein-antibody complexes were incubated with 20 μl of Protein A/G PLUS-Agarose at 4 °C on a rotating device overnight. Immunoprecipitates were collected by centrifugation at 2,500 rpm and washed for 4 times with 1 ml lysis buffer, then suspended in the loading buffer, boiled, and analyzed by SDS-PAGE.
Figure S1. Fumos inhibits Gab1-Shp2 association in MDA-MB-231 cells.
MDA-MB-231 cells were serum-starved for 18 h, preincubated with or without Fumos (20 μM 24 h), and then treated with EGF (20 ng/ml, 5 min). Shp2 was immunoprecipitated from cell lysate supernatants. Immunoprecipitates were analyzed by immunoblotting with antibodies to Gab1, pY and Shp2.
(§1) (1 picture or pasted object on this page, not shown here)

[2] = biological target: T1, Shp2 PTP domain (Homo sapiens, UniProt Q06124); assay: in vitro PTP assay (pNPP), Shp2 PTP domain; type: biochemical
T1 sequence (Q06124 247-517 limits assumed): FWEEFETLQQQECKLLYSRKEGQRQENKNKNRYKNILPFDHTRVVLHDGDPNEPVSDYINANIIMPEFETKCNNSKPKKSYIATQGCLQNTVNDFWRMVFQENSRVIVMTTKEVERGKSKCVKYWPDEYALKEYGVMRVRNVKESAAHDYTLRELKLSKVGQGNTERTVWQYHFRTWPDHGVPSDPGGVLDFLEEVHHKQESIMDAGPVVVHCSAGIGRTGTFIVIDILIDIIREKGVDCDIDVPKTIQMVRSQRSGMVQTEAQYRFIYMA
Procedure: (§2) Plasmids for expression of His-tag fusion proteins of human PTP were constructed in PET-28a by PCR subcloning techniques. The constructions contain only the PTP domain except Full-length Shp2. Full-length Shp2 containing Tyr279-to-Ala mutant was generated by PCR-based mutagenesis. All constructs were verified by DNA sequencing. PTP-His fusion proteins were expressed in Escherichia coli BL21 and lysed in the buffer (50 mM NaH2PO4, 300 mM NaCl, 250 mM imidazole, 1 mM dithiothreitol plus 5% glycerol), purified with Ni-NTA Magnetic Agarose Beads (Qiagen). The His-tag recombinant purification protocol was carried out according to the purification under native conditions of the QIAexpress System.
(§3) The assay was set in wells of 96-well plate with a final volume of 100 μl of reaction mixture containing 10 mM of NaAc-HAc, 1 mM of ethylene diamine tetraacetic acid, 1 mM of DL-dithiothreitol and 2% of dimethyl sulfoxide, pH 5.5. Activity of the enzyme was assayed by incubating recombinant PTP protein or mutant PTP with various concentrations of Fumos in the mixture at 37 °C for 30 min. Absorbance at 405 nm was detected immediately after addition of varied concentrations of substrate, p-nitrophenyl phosphate (pNPP) to each corresponding well.

[3] = system: ERK1/2 phosphorylation in HeLa cells; assay: EGF-induced ERK1/2 activation, Western blot, HeLa; type: cell-based, human; settings: 10-40 μM for 24 h, EGF 20 ng/ml 5 min
From the text: (§4) After centrifugation, the supernatant was collected.

[4] = system: ERK1/2 activation in transfected HEK293T cells; assay: ERK activity after Shp2 or PTP1B overexpression in HEK293T; type: cell-based, human; settings: 20 μM Fumos 24 h
Procedure: HEK293T, MDA-MB-231and HeLa cell lines were obtained from CRC/PUMC. Cell lines were maintained in Dulbecco’s modified Eagle’s medium supplemented with 10% fetal bovine serum. Transfections were performed in 6-well plates according to manufacturer (Invitrogen Lipofectamine LTX).Briefly, for transient transfection of HEK293T cells, subconfluent cells in 6-well plates were incubated with 2 ml of Dulbecco’s modified Eagle’s medium containing 2.5 μg of total DNA and 7.5 μl of each Lipofectamine and Plus reagent (Invitrogen) and then serum-starved in DMEM/0.1% bovine serum albumin for 18 h. After Fumos treatment for 24 h, cells were stimulated for 5 min with 20 ng/ml EGF.
Figure S2. Fumos inhibits Shp2-mediated ERK1/2 activation in human cells. […]
vectors for PTP1B and Shp2, and either untreated or treated with 20 μM Fumos for 24 h, respectively. Total cell lysates were immunoblotted with antibodies specific for […]
as §1

[5] = biological target: SHP1 (Homo sapiens, UniProt P29350); assay: in vitro PTP assay (pNPP), SHP1; type: biochemical
Procedure: as §2, §3

[6] = system: Src and Paxillin phosphorylation in HeLa cells; assay: Src, PLCγ1 and Paxillin phosphorylation, Western blot, HeLa; type: cell-based, human; settings: 10-40 μM 24 h, EGF
From the text: Figure 6 Fumos affects the phosphorylation of Src and Paxillin. […] DMSO treatment as control. Western blotting analysis for the expression of p-Src(Tyr416) p-Src (Tyr530), Src, p-PLCγ1, PLCγ1, p-Paxillin(Tyr118), p-Paxillin (Tyr31) and Paxillin. (b,c) Densitometric analysis of pSrc530/Src in the Western blots of Hela and MDA-MB-231, respectively. Bars represent mean ± S.E.M. values from three experiments, **p = 0.006 < 0.01/F = 8 vs EGF, one-way ANOVA followed by Tukey’s test.
as §4

[7] = biological target: Cdc25b (Homo sapiens, UniProt P30305); assay: in vitro PTP assay (pNPP), Cdc25b; type: biochemical
Procedure: as §2, §3

[8] = system: EGF-induced Ras activation in HEK293T cells; assay: Ras activation assay (GST-RBD pull-down), HEK293T; type: cell-based, human; settings: Fumos 20 μM
Procedure: Active Ras was detected by use of the RBD of raf-1 fused to glutathione S-transferase (GST) as described previously. Cells were lysed in MLB buffer (25 mM Hepes, 150 mM NaCl, 1% Nonidet P-40, 0.25% sodium deoxycholate, 10% glycerol, 25 mM NaF, 1 mM Na3VO4, 10 mM MgCl2, 1 mM EDTA, pH 7.5) supplemented with complete EDTA-free protease inhibitor mixture. Total 500 μg cell lysate was incubated with 10–20 μg of GST-RBD bound beads(Merck) overnight at 4 °C. The beads were pelleted by centrifugation and washed three times with MLB buffer. The beads were boiled in SDS loading buffer and subjected to electrophoresis, followed by immunoblotting with an anti-Ras antibody (Santa Cruz Biotechnology).

Sequence of Cdc25b (P30305 431-538 limits assumed): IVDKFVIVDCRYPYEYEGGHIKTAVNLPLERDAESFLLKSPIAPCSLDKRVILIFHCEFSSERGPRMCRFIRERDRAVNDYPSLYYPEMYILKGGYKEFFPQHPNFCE
Sequence of SHP1 (P29350 244-515 limits assumed): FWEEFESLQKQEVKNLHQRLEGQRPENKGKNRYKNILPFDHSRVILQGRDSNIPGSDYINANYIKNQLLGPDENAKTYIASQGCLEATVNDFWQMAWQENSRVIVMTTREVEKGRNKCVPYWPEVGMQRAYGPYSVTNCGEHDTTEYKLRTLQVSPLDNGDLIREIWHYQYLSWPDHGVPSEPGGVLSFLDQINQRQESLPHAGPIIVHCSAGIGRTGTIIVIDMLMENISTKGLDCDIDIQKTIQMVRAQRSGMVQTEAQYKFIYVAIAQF

Question: How did the “Gab1-Shp2 association without EGF” value [1] turn out when `CC[C@@H](C)C[C@@H](C)/C=C(C)/C=C/C=C/C=C(\C)C(=O)c1c(O)c(-c2ccc(O)cc2)cn(O)c1=O` [Fumos, Fumosorinone] was run?
Answer: induces Gab1-Shp2 association

Question: What about the IC50 [2] of the same compound?
Answer: 6.31 ± 0.52 µM

Question: And the IC50 selective ([2]; Shp2 relative to Shp2 PTP domain)?
Answer: 1

Question: And the “EGF-induced ERK1/2 phosphorylation” value [3]?
Answer: drastically decreased

Question: What about the “ERK activity after Fumos treatment in cells transfected with PTP1B” value [4] of the same compound?
Answer: little recovery

Question: What about the “ERK activity after Fumos treatment in cells transfected with Shp2” value [4] of the same compound?
Answer: partially recovered

Question: What about the IC50 ([5]; SHP1 PTP domain) of the same compound?
Answer: 34.7 ± 0.37 µM

Question: And the IC50 selective ([5]; SHP1 relative to Shp2 PTP domain)?
Answer: ~6

Question: What about the “Src Tyr416 phosphorylation” value [6] of the same compound?
Answer: dose-dependent downregulation

Question: What about the “phosphorylated Tyr 530 of Src” value [6] of the same compound?
Answer: moderately increased

Question: What about the “phosphorylation of PLCγ1” value [6] of the same compound?
Answer: decreased

Question: What about the “phosphorylation of Paxillin at Tyr31” value [6] of the same compound?
Answer: peaked at low concentrations of Fumos and reduced at high concentrations

Question: And the “phosphorylation of Paxillin at Tyr118” value [6]?
Answer: decreased with the increasing concentrations

Question: What about the IC50 ([7]; Cdc25b PTP domain) of the same compound?
Answer: > 100 µM

Question: And the IC50 selective ([7]; Cdc25b relative to Shp2 PTP domain)?
Answer: >16

Question: What about the “EGF-induced endogenous Ras activation” value [8] of the same compound?
Answer: inhibited
